Measured values reported in ChEMBL document CHEMBL5137079, “Structure-Based Design of Xanthine-Benzimidazole Derivatives as Novel and Potent Tryptophan Hydroxylase Inhibitors” (J Med Chem, 2022).
Values after ≈ are worked out from the molar mass of the structure shown.

Key:
[1] = Solubility of the compound in PBS at pH 7.4 at upto 200 uM by HPLC-UV analysis; type: physicochemical
[2] = Solubility of the compound in simulated gastric fluid at upto 200 uM by HPLC-UV analysis; type: physicochemical
[3] = Metabolic stability in rat hepatocytes assessed as half life; type: ADME, cell-based, Hepatocyte
[4] = Solubility of the compound in simulated intestinal fluid at upto 200 uM by HPLC-UV analysis; type: physicochemical
[5] = Metabolic stability in human hepatocytes assessed as half life; type: ADME, cell-based, Hepatocyte
[6] = Metabolic stability in human hepatocytes assessed as intrinsic clearance; type: ADME, cell-based, Hepatocyte; settings: read-out: CLH
[7] = Metabolic stability in rat hepatocytes assessed as intrinsic clearance; type: ADME, cell-based, Hepatocyte; settings: read-out: CLH
[8] = AUCinfinity in ICR mouse plasma at 50 mg/kg, po administered as single dose measured for 1440 mins by LC-MS/MS analysis; type: ADME, organism-based; parameters: time 1440 min, dose 50 mg/kg, route po
[9] = AUCinfinity in ICR mouse brain at 50 mg/kg, po administered as single dose measured for 1440 mins by LC-MS/MS analysis; type: ADME, organism-based; parameters: time 1440 min, dose 50 mg/kg, route po

solubility [1] [µM]	solubility [2] [µM]	half-life [3] [h]	solubility [4] [µM]	half-life [5] [h]	CLint scaled [6] [mL/min/kg]	CLint scaled [7] [mL/min/kg]	AUC(0-inf) [8] [ng·h/mL]	AUC(0-inf) [9] [ng·h/mL]	Compound
167 (≈ 69 µg/mL)	180 (≈ 74.1 µg/mL)	0.583	168 (≈ 69.2 µg/mL)	0.1	–	–	–	–	O=c1[nH]c(=O)n(C2CC2)c2nc(Cc3nc4ccccc4[nH]3)n(Cc3ccccc3)c12
171 (≈ 73.4 µg/mL)	165 (≈ 70.6 µg/mL)	> 1	185 (≈ 79.1 µg/mL)	> 1	< 115	< 115	–	–	O=c1[nH]c(=O)n(C2CC2)c2nc(Cc3nc4ccc(O)cc4[nH]3)n(Cc3ccccc3)c12
> 200	198 (≈ 85.4 µg/mL)	> 1	154 (≈ 66.4 µg/mL)	0.533	–	< 115	–	–	O=c1[nH]c(=O)n(C2CC2)c2nc(Cc3nc4ccc(F)cc4[nH]3)n(Cc3ccccc3)c12
197 (≈ 92.8 µg/mL)	198 (≈ 93.2 µg/mL)	> 1	195 (≈ 91.8 µg/mL)	> 1	< 115	< 115	–	–	COC(=O)c1ccc2nc(Cc3nc4c(c(=O)[nH]c(=O)n4C4CC4)n3Cc3ccccc3)[nH]c2c1
154 (≈ 67.2 µg/mL)	196 (≈ 85.8 µg/mL)	> 1	196 (≈ 85.6 µg/mL)	> 1	< 115	< 115	–	–	N#Cc1ccc2nc(Cc3nc4c(c(=O)[nH]c(=O)n4C4CC4)n3Cc3ccccc3)[nH]c2c1
197 (≈ 87.1 µg/mL)	162 (≈ 71.6 µg/mL)	> 1	195 (≈ 86.3 µg/mL)	0.1	–	< 115	–	–	COc1ccc2nc(Cc3nc4c(c(=O)[nH]c(=O)n4C4CC4)n3Cc3ccccc3)[nH]c2c1

The remaining lines, values behind:

Compound	solubility [1] [µM]	solubility [2] [µM]	half-life [3] [h]	solubility [4] [µM]	half-life [5] [h]	CLint scaled [6] [mL/min/kg]	CLint scaled [7] [mL/min/kg]	AUC(0-inf) [8] [ng·h/mL]	AUC(0-inf) [9] [ng·h/mL]
CCn1c(=O)[nH]c(=O)c2c1nc(Cc1nc3ccccc3[nH]1)n2Cc1ccccc1	181 (≈ 72.6 µg/mL)	162 (≈ 64.8 µg/mL)	1	158 (≈ 63.2 µg/mL)	0.2	–	–	–	–
CCCn1c(=O)[nH]c(=O)c2c1nc(Sc1nc3ccccc3[nH]1)n2Cc1ccccc1	11.8 (≈ 5.1 µg/mL)	173 (≈ 74.8 µg/mL)	0.0833	150 (≈ 65 µg/mL)	0.0667	–	–	–	–
CCn1c(=O)[nH]c(=O)c2c1nc(Cc1nc3cc4c(cc3[nH]1)OCO4)n2Cc1ccccc1	186 (≈ 82.8 µg/mL)	191 (≈ 84.8 µg/mL)	1	166 (≈ 73.8 µg/mL)	> 1	< 115	–	7450	195
CCn1c(=O)[nH]c(=O)c2c1nc(Sc1nc3ccccc3[nH]1)n2Cc1ccccc1	5.3 (≈ 2.22 µg/mL)	195 (≈ 81.5 µg/mL)	0.167	176 (≈ 73.5 µg/mL)	0.0833	–	–	–	–
Cn1c(=O)[nH]c(=O)c2c1nc(Sc1nc3cc(NC(=O)CC[C@H](N)C(=O)O)ccc3[nH]1)n2Cc1ccccc1	172 (≈ 94.2 µg/mL)	> 200	> 1	116 (≈ 63.4 µg/mL)	> 1	< 115	< 115	–	–
CCCn1c(=O)[nH]c(=O)c2c1nc(Cc1nc3cc(O)ccc3[nH]1)n2Cc1ccccc1	> 200	189 (≈ 81.3 µg/mL)	> 1	159 (≈ 68.5 µg/mL)	> 1	< 115	< 115	–	–
O=c1[nH]c(=O)n(C2CC2)c2nc(Cc3nc4ccc(OCCO)cc4[nH]3)n(Cc3ccccc3)c12	186 (≈ 87.7 µg/mL)	186 (≈ 87.9 µg/mL)	> 1	189 (≈ 89.2 µg/mL)	> 1	< 115	< 115	–	–
O=c1[nH]c(=O)n(C2CC2)c2nc(Cc3nc4cc5c(cc4[nH]3)OCO5)n(Cc3ccccc3)c12	22.9 (≈ 10.5 µg/mL)	193 (≈ 87.9 µg/mL)	> 1	191 (≈ 87.3 µg/mL)	> 1	< 115	< 115	–	–
